Laboratory results from patent publication US10898481B2 (priority 2018, dated 2021).
Like-named read-outs stand apart in the source and are kept apart here.

Legend:
hA1 = hA1 (Homo sapiens (Human), UniProt P30542); settings: hA1 membrane, [3H]-DPCPX; read-out: Binding Affinity (IC50 nM) hA1
Excerpt: (§1) The empty boxes in the tables below indicate data not collected yet.

hA2a = hA2a (Homo sapiens (Human), UniProt P29274); assay: Radioligand binding to hA2a membrane with [3H]-CGS21680; settings: read-out: Binding Affinity (IC50 nM) hA2a
hA2a, sequence (P29274 whole entry): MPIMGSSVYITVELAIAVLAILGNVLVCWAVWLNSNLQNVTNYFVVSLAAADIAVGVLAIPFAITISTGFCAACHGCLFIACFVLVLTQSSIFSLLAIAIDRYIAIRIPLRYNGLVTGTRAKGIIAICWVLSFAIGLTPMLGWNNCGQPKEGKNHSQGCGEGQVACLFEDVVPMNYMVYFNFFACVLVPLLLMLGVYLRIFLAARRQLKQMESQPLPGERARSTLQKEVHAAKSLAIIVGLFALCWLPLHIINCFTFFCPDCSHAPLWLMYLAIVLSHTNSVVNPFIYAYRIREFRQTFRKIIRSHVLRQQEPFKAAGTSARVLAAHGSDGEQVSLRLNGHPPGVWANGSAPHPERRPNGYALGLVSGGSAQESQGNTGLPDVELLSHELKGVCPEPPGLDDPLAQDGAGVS
Excerpt: as §1

hA2b = hA2b (Homo sapiens (Human), UniProt P29275); assay: Radioligand binding to hA2b membrane with [3H]-DPCPX; settings: read-out: Binding Affinity (IC50 nM) hA2b
hA2b, sequence (P29275 whole entry): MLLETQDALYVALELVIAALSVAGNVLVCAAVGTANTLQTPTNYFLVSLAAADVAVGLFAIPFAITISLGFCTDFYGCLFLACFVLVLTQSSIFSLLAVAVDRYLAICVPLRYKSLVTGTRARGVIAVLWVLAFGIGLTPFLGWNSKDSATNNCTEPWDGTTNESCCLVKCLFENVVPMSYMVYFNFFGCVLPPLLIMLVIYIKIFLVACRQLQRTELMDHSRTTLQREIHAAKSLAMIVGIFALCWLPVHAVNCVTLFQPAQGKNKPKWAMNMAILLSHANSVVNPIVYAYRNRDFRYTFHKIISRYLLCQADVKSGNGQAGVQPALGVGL
Excerpt: as §1

[1] = target: hADORA1/CHO (hA1 expressing) cells (Homo sapiens (Human), UniProt P30542); assay: cell-based; settings: 10 μM adenosine
hADORA1/CHO (hA1 expressing) cells, sequence (P30542 whole entry): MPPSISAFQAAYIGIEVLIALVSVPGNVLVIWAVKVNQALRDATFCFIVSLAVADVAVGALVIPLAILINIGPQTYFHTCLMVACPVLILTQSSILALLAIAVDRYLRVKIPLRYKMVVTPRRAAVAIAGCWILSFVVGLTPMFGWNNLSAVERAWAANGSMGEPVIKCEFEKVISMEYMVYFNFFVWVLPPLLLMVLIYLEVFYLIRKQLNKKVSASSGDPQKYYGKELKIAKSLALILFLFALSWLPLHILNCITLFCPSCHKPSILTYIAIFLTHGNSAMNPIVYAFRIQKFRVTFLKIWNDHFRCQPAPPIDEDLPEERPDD
Procedure: hADORA1/CHO (hA1 expressing) cells (Genscript) were plated at 1×10^4 cells/well into 384-well polystyrene plates one day before starting the experiment. On the day of experiment, the supernatant was discard and replaced with 40 μL of dye (FLIPR calcium 5 Assay Kit) per well and the plates were incubated for 60 mins at 37° C. plus 5% CO2. Then testing compounds were added at different concentrations for FLIPR™ inhibition assay. After a 400s incubation with compound, 10 μM adenosine was added into the cells, and the signal was captured by FLIPR.

hA2a/CHO = hA2a/CHO (Homo sapiens (Human), UniProt P29274); assay: cAMP inhibition assay in hA2a/CHO cells, 10 μM adenosine; type: cell-based; settings: read-out: cAMP & FLIPR IC50 (nM) hA2a;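 note: compounds added to cells 30 min ahead of adenosine, then a further 30 min at 37 °C with adenosine before cAMP detection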
hA2a/CHO, sequence (P29274 whole entry): as the sequence (P29274 whole entry) above

hA2b/CHO = hA2b/CHO (Homo sapiens (Human), UniProt P29275); assay: cAMP inhibition assay in hA2b/CHO cells, 10 μM adenosine; type: cell-based; settings: read-out: cAMP & FLIPR IC50 (nM) hA2b;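 note: cells exposed to compound 30 min at 37 °C, then stimulated with adenosine a further 30 min, cAMP read after 60 min at room temperature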
hA2b/CHO, sequence (P29275 whole entry): as the sequence (P29275 whole entry) above

hA3/CHO = hA3/CHO (Homo sapiens (Human), UniProt P0DMS8); assay: cell-based
hA3/CHO, sequence (P0DMS8 whole entry): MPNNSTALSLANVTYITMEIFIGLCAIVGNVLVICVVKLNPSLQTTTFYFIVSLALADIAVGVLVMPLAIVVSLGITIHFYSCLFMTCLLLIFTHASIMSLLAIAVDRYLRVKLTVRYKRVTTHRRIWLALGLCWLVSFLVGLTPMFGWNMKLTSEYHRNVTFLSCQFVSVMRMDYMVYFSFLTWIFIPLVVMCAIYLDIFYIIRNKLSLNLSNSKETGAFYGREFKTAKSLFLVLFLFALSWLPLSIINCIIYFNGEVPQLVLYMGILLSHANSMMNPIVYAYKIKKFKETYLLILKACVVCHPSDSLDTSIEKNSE
Procedure: hA2a/CHO, hA2b/CHO, hA3/CHO and mA2a/CHO (Genscript) were plated at 5×10^3 cells/well into 384-well polystyrene plates at the day of experiment. Compounds were pre-incubated with cells for 30 min at 37° C., 5% CO2. Then 10 μM adenosine was added to the cells and incubated for 30 min at 37° C., 5% CO2. Detection reagent (CISBIO) was added and the plates were incubated for 60 min at room temperature. The signal was captured by Envision.

mA2a/CHO = mA2a/CHO (Mus musculus (Mouse), UniProt Q60613); assay: cAMP inhibition assay in mA2a/CHO cells, 10 μM adenosine; type: cell-based; settings: read-out: cAMP & FLIPR IC50 (nM) mA2a;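 note: compounds preincubated 30 min at 37 °C before the adenosine challenge, then 30 min further stimulation, readout after 60 min detection reagent incubation at room temperature in 384-well plates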
mA2a/CHO, sequence (Q60613 whole entry): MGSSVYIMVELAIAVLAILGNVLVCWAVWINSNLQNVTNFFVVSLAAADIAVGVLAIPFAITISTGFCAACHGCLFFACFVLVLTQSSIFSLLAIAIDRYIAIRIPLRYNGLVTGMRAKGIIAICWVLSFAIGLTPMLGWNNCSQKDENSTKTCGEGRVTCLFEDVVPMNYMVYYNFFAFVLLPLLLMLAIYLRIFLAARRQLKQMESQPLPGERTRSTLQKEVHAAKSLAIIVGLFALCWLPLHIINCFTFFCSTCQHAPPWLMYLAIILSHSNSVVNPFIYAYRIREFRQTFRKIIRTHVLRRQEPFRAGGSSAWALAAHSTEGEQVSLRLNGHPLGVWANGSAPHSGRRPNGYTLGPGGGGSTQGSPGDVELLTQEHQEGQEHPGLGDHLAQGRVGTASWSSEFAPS

[2] = FLIPR inhibition, read-out: cAMP & FLIPR IC50 (nM) hA1
[3] = cAMP & FLIPR IC50 (nM) hA1, FLIPR inhibition

hA1, sequence (P30542 whole entry): as the sequence (P30542 whole entry) above

Structure (SMILES)	IC50 (hA1)	IC50 (hA2a)	IC50 (hA2b)	IC50 [1, 2]	IC50 (hA2a/CHO)	IC50 (hA2b/CHO)	IC50 (hA3/CHO)	IC50 (mA2a/CHO)	IC50 [1, 3]
Cn1cc(-c2nc(C(=O)NCc3c(F)cccc3F)c(N)nc2-c2ncco2)ccc1=O [Example 3, 3-amino-N-(2,6-difluorobenzyl)-6-(1-methyl-6-oxo-1,6-dihydropyridin-3-yl)-5-(oxazol-2-yl)pyrazine-2-carboxamide]	16 nM	1.9 nM	1.4 nM	159 nM	4.5 nM	53 nM	≥ 10000 nM	5.8 nM	
CN(C)c1cccnc1CNC(=O)c1nc(-c2ccc(=O)n(C)c2)c(-c2ncco2)nc1N [Example 16, 3-amino-N-((3-(dimethylamino)pyridin-2-yl)methyl)-6-(1-methyl-6-oxo-1,6-dihydropyridin-3-yl)-5-(oxazol-2-yl)pyrazine-2-carboxamide]	15 nM	3.9 nM		32 nM	5.3 nM	336 nM		8.3 nM	
CNc1cccc(CNC(=O)c2nc(-c3ccc(=O)n(C)c3)c(-c3ncco3)nc2N)n1 [Example 23, 3-amino-6-(1-methyl-6-oxo-1,6-dihydropyridin-3-yl)-N-[[6-(methylamino)pyridin-2-yl]methyl]-5-(1,3-oxazol-2-yl)pyrazine-2-carboxamide]		3.5 nM	2.9 nM	281 nM	25 nM	880 nM	≥ 10000 nM	64 nM	
Nc1nc(-c2ncco2)c(-c2ccc3nccn3c2)nc1C(=O)NCc1ncccc1F [Example 43, 3-amino-N-((3-fluoropyridin-2-yl)methyl)-6-(imidazo[1,2-a]pyridin-6-yl)-5-(oxazol-2-yl)pyrazine-2-carboxamide]	245 nM	21 nM			49 nM	159 nM		240 nM	10000 nM
Nc1cccc(CNC(=O)c2nc(-c3ccc4nccn4c3)c(-c3ncco3)nc2N)n1 [Example 48, 3-amino-N-[(6-aminopyridin-2-yl)methyl]-6-[imidazo[1,2-a]pyridin-6-yl]-5-(1,3-oxazol-2-yl) pyrazine-2-carboxamide]	67 nM	3.1 nM		7160 nM	19 nM	84 nM		256 nM	
Cn1cc(-c2nc(C(=O)NCc3nc(N)ccc3F)c(N)nc2-c2ncco2)ccc1=O [Example 49, 3-amino-N-((6-amino-3-fluoropyridin-2-yl)methyl)-6-(1-methyl-6-oxo-1,6-dihydropyridin-3-yl)-5-(oxazol-2-yl)pyrazine-2-carboxamide]	117 nM								1710 nM
Cn1cnc2ccc(-c3nc(C(=O)NCc4ncccc4F)c(N)nc3-c3ncco3)cc21 [Example 51, 3-amino-N-((3-fluoropyridin-2-yl)methyl)-6-(3-methyl-3H-benzo[d]imidazol-5-yl)-5-(oxazol-2-yl)pyrazine-2-carboxamide]	78 nM	2.1 nM		2500 nM	1.2 nM	5.5 nM		9.6 nM	
COc1ccccc1CNC(=O)c1nc(-c2cc(C)nc(C)c2)c(-c2ccc(C)o2)nc1N [Example 61, 3-amino-6-(2,6-dimethylpyridin-4-yl)-N-(2-methoxybenzyl)-5-(5-methylfuran-2-yl)pyrazine-2-carboxamide]	52 nM	7.9 nM			0.6 nM	≥ 10000 nM		6 nM	
Cn1cc(-c2nc(C(=O)NC(CO)c3c(F)cccc3F)c(N)nc2-c2ncco2)ccc1=O (stereo not drawn) [Example 98, 3-amino-N-(1-(2,6-difluorophenyl)-2-hydroxyethyl)-6-(1-methyl-6-oxo-1,6-dihydropyridin-3-yl)-5-(oxazol-2-yl) pyrazine-2-carboxamide]	10 nM	9.3 nM			21 nM	126 nM		64 nM	70 nM
Nc1nc(-c2ncco2)c(-c2ccc3ncnn3c2)nc1C(=O)NCc1ncccc1F [Example 100, 6-([1,2,4]triazolo[1,5-a]pyridin-6-yl)-3-amino-N-((3-fluoropyridin-2-yl)methyl)-5-(oxazol-2-yl)pyrazine-2-carboxamide]	685 nM	8.4 nM			76 nM	312 nM		4530 nM	10000 nM
Cc1cnc2ccc(-c3nc(C(=O)NCc4ncccc4F)c(N)nc3-c3ncco3)cn12 [Example 101, 3-amino-N-((3-fluoropyridin-2-yl)methyl)-6-(3-methylimidazo[1,2-a]pyridin-6-yl)-5-(oxazol-2-yl)pyrazine-2-carboxamide]	5.6 nM			45 nM					
Cc1cnc2ccc(-c3nc(C(=O)NC[C@H]4CCCO4)c(N)nc3-c3ncco3)cn12 [Example 126, (R)-3-amino-6-(3-methylimidazo[1,2-a]pyridin-6-yl)-5-(oxazol-2-yl)-N-((tetrahydrofuran-2-yl)methyl)pyrazine-2-carboxamide]	78 nM	1.4 nM			1.6 nM	77 nM		7 nM	1230 nM
Cc1cnc2ccc(-c3nc(C(=O)NC[C@@H]4CCCO4)c(N)nc3-c3ncco3)cn12 [Example 127, (S)-3-amino-6-(3-methylimidazo[1,2-a]pyridin-6-yl)-5-(oxazol-2-yl)-N-((tetrahydrofuran-2-yl)methyl)pyrazine-2-carboxamide]	68 nM	3.1 nM			1.7 nM	99 nM		14 nM	2420 nM
Cc1cnc2ccc(-c3nc(C(=O)NC(C)C)c(N)nc3-c3ncco3)cn12 [Example 133, 3-amino-N-isopropyl-6-(3-methyl-imidazo[1,2-a]pyridin-6-yl)-5-(oxazol-2-yl)pyrazine-2-carboxamide]	271 nM	2.7 nM			5.9 nM	554 nM		19 nM	10000 nM
Cc1cnc2ccc(-c3nc(C(=O)NC[C@H]4CCOC4)c(N)nc3-c3ncco3)cn12 [Example 136, (R)-3-amino-6-(3-methylimidazo[1,2-a]pyridin-6-yl)-5-(oxazol-2-yl)-N-((tetrahydrofuran-3-yl)methyl)pyrazine-2-carboxamide]	182 nM	1.7 nM			1.8 nM	512 nM		27 nM	10000 nM
Cc1cnc2ccc(-c3nc(C(=O)NC[C@@H]4CCOC4)c(N)nc3-c3ncco3)cn12 [Example 137, (S)-3-amino-6-(3-methylimidazo[1,2-a]pyridin-6-yl)-5-(oxazol-2-yl)-N-((tetrahydrofuran-3-yl)methyl)pyrazine-2-carboxamide]	195 nM	3.9 nM			1.7 nM	464 nM		34 nM	10000 nM
COCCNC(=O)c1nc(-c2ccc3ncc(C)n3c2)c(-c2ncco2)nc1N [Example 147, 3-amino-N-(2-methoxyethyl)-6-(3-methylimidazo[1,2-a]pyridin-6-yl)-5-(oxazol-2-yl)pyrazine-2-carboxamide]	108 nM	5.6 nM		2380 nM	3.8 nM	134 nM		15 nM	
COC[C@H](C)NC(=O)c1nc(-c2ccc3ncc(C)n3c2)c(-c2ncco2)nc1N [Example 160, (S)-3-amino-N-(1-methoxypropan-2-yl)-6-(3-methylimidazo[1,2-a]pyridin-6-yl)-5-(oxazol-2-yl)pyrazine-2-carboxamide]	333 nM	3.15 nM		4860 nM	0.26 nM	163 nM		0.89 nM	
Cc1cnc2ccc(-c3nc(C(=O)NC4CCC4)c(N)nc3-c3ncco3)cn12 [Example 218, 3-amino-N-cyclobutyl-6-(3-methylimidazo[1,2-a]pyridin-6-yl)-5-(oxazol-2-yl)pyrazine-2-carboxamide]	475 nM	9.1 nM		> 10000 nM	1.5 nM	359 nM		28 nM	
